Earlier results, collected in the CATMoS acute toxicity set (Mansouri et al. 2021).

Test: rat acute oral toxicity
Conditions: in vivo
In the case of CCCCCCCCCCCOC(=O)Cc1ccc(N(CCCl)CCCl)cc1, the LD50 is given as 50 mg/kg.
In the case of CCN(N=O)C(C)(C)C, the LD50 is listed as 1600 mg/kg.
In the case of CCCCSc1ccc(C(SCCN(C)C)c2ccccc2)cc1 (centres undefined), the LD50 is listed as 3800 mg/kg.
In the case of O=C1N(Cl)C2C(N1Cl)N(Cl)C(=O)N2Cl (centres undefined), the LD50 is listed as 2150 mg/kg.
In the case of C=C(C)C(=O)OCC1CCC2OC2C1 (centres undefined), the LD50 is given as 2500 mg/kg.
In the case of COc1cc(Cc2cnc(N)nc2N)cc(OC)c1OC, the LD50 is given as 200 mg/kg.
For OCCN(CCO)c1nc(N2CCCCC2)c2nc(N(CCO)CCO)nc(N3CCCCC3)c2n1, the LD50 is listed as 8400 mg/kg.
In the case of CCOc1ccc([N+](=O)[O-])cc1, the LD50 is listed as 3300 mg/kg.
In the case of O=S(=O)(Oc1ccc(Cl)cc1)c1ccccc1, the LD50 is listed as 1350 mg/kg.
In the case of COC(C)OC, the LD50 is listed as 6500 mg/kg.
For CC(Oc1cccc2ccccc12)C(N)=NO (centres undefined), the LD50 is given as 90 mg/kg.
For O=C(Oc1cccc(O)c1)c1ccccc1, the LD50 is given as 800 mg/kg.
For Cc1ncc(CO)c(CO)c1O, the LD50 is listed as 4000 mg/kg.
For CCOC(CN1CCN(CC(C)C(=O)c2ccccc2)CC1)c1ccccc1 (centres undefined), the LD50 is listed as 763 mg/kg.
For C[Si](Cl)(Cl)CCC(F)(F)F, the LD50 is listed as 1000 mg/kg.
For CCOC(C1=NCC(C)(C)CN1)c1cccc2ccccc12 (centres undefined), the LD50 is listed as 55 mg/kg.
For CC(Cl)(Cl)C(=O)O, the LD50 is given as 3860 mg/kg.
For CCCCCCOC(=O)c1ccccc1, the LD50 is given as 12300 mg/kg.
For CCC(C)N(C(=O)c1c(Cl)cccc1Cl)C(C)CC (centres undefined), the LD50 is given as 1450 mg/kg.
In the case of CCC(=O)OC(CC)(c1ccccc1)C1CCN(C)C1 (centres undefined), the LD50 is given as 460 mg/kg.
For CC(C)OP(=S)(CCl)Sc1ccc(Cl)cc1 (centres undefined), the LD50 is listed as 26 mg/kg.
In the case of CN(C)CCN(Cc1ccc(Cl)cc1)c1ccccn1, the LD50 is given as 920 mg/kg.
For Cc1ccccc1C(C)C, the LD50 is listed as 2130 mg/kg.
For C1CNCCN1, the LD50 is listed as 4900 mg/kg.
For CC(C)CNC(=O)CF, the LD50 is listed as 42 mg/kg.
In the case of CCC1CCC(CC)O1 (centres undefined), the LD50 is listed as 3400 mg/kg.
In the case of Cc1c(Cl)cccc1Nc1ncccc1C(=O)O, the LD50 is listed as 335 mg/kg.
In the case of CNCC1CCCCC1, the LD50 is listed as 1410 mg/kg.
For O=c1[nH]c2ccc(Br)cc2o1, the LD50 is given as 1000 mg/kg.
For Clc1ccc(C(Cl)(Cl)c2ccc(Cl)cc2)cc1, the LD50 is listed as 168 mg/kg.
For O=CCC=O, the LD50 is listed as 632 mg/kg.
In the case of CC(=O)N(CCN(C(C)=O)C(C)=O)C(C)=O, the LD50 is given as 7940 mg/kg.
In the case of CCOP(=O)(N=C1SCCS1)OCC, the LD50 is given as 8.9 mg/kg.
For CN1CSC(=S)N(C)C1, the LD50 is given as 320 mg/kg.
For O=C(O)c1cc(-c2ccc(F)cc2F)ccc1O, the LD50 is given as 392 mg/kg.
For Cc1ccc2[nH]c(C(F)(F)F)nc2c1[N+](=O)[O-], the LD50 is given as 7.75 mg/kg.
For CC(C)=NNC(=O)CSc1cc(Oc2ccccc2)ncn1, the LD50 is listed as 1080 mg/kg.
For CN=C(O)O/N=C1/SC(C)OC1C (centres undefined), the LD50 is given as 4.5 mg/kg.
For CNC(=O)Oc1cccc2ccc(C)nc12, the LD50 is listed as 120 mg/kg.
In the case of CS(=O)(=O)OCCCN(CCCOS(C)(=O)=O)c1ccccc1, the LD50 is listed as 38 mg/kg.
In the case of CC(=O)NC(=O)c1ccccc1O, the LD50 is listed as 1800 mg/kg.
In the case of CC(C)CCON=O, the LD50 is given as 505 mg/kg.
In the case of C#CCOc1ccccc1OC(=O)NC, the LD50 is given as 60 mg/kg.
For NC(=O)Nc1cccc2c3c([nH]c12)CCCC3, the LD50 is listed as 2770 mg/kg.
In the case of N#CSc1ccc(N)cc1, the LD50 is given as 240 mg/kg.
In the case of O=C(O)C1CCc2cc(C3CCCCC3)c(O)cc21 (centres undefined), the LD50 is listed as 450 mg/kg.
For CC1CO1 (centres undefined), the LD50 is listed as 380 mg/kg.
For CCC(=O)C1(c2cccc(O)c2)CCN(C)CC1, the LD50 is listed as 215 mg/kg.
For Cn1cc(C(=O)[C@@H]2CCc3[nH]cnc3C2)c2ccccc21, the LD50 is listed as 1260 mg/kg.
In the case of CCC(=O)O[C@H]1[C@H](O[C@@H]2[C@@H](C)[C@H](O[C@H]3C[C@@](C)(OC)[C@@H](O)[C@H](C)O3)[C@@H](C)C(=O)O[C@H](CC)[C@@](C)(O)[C@H](O)[C@@H](C)C(=O)[C@H](C)C[C@@]2(C)O)O[C@H](C)C[C@@H]1N(C)C, the LD50 is given as 1450 mg/kg.
For O=C(CS)OCCCCOC(=O)CS, the LD50 is listed as 405 mg/kg.
In the case of CCOC(=O)C=Cc1ccccc1, the LD50 is listed as 4000 mg/kg.
In the case of CCC(=O)OC1(c2ccccc2)CCN(C)C1C (centres undefined), the LD50 is listed as 253 mg/kg.
For CCOC(C)C#N (centres undefined), the LD50 is listed as 2860 mg/kg.
In the case of CC(=O)Nc1ccc(C)c(NS(=O)(=O)C(F)(F)F)c1, the LD50 is listed as 2580 mg/kg.
In the case of Cc1nc2ccccc2[se]1, the LD50 is given as 471 mg/kg.
In the case of Cc1cc[nH]n1, the LD50 is given as 710 mg/kg.
In the case of C/C(=N/NC(=O)c1ccncc1)c1ccco1, the LD50 is given as 110 mg/kg.
For O=c1ncc2[nH]cnc2[nH]1, the LD50 is listed as 1040 mg/kg.
In the case of CC(C)c1cc([N+](=O)[O-])cc([N+](=O)[O-])c1O, the LD50 is listed as 63 mg/kg.
For O=C(CF)Nc1ccc(F)cc1, the LD50 is listed as 2 mg/kg.
In the case of CCCC(C(=O)OCCN(CC)CC)(c1ccccc1)c1ccccc1, the LD50 is listed as 2140 mg/kg.
In the case of C#CCN(C)c1ccccc1OC(=O)NC, the LD50 is given as 60 mg/kg.
In the case of CN(C)c1ccc(C=C2C(=O)N=C3c4ccccc4N=CN23)cc1, the LD50 is given as 355 mg/kg.
For CC(C)CNC(=O)N1CCNC1=O, the LD50 is listed as 3500 mg/kg.
In the case of O=C(O)Cc1ccccc1, the LD50 is listed as 2250 mg/kg.
For CN(C)CC/C=C1\c2ccccc2CSc2ccccc21, the LD50 is listed as 450 mg/kg.
In the case of NCCCOCCCCOCCCN, the LD50 is listed as 3450 mg/kg.
For CCON(CC)N=O, the LD50 is listed as 1000 mg/kg.
For OCC1(CO)CC=CCC1, the LD50 is given as 1750 mg/kg.
For Cc1cccc(OCC(O)CNC(C)(C)C)c1C (centres undefined), the LD50 is given as 575 mg/kg.
For CCOC(=O)OC(C)OC1=C(C(=O)Nc2ccccn2)N(C)S(=O)(=O)c2ccccc21 (centres undefined), the LD50 is given as 747 mg/kg.
In the case of O=C(OCC1CO1)c1ccccc1 (centres undefined), the LD50 is given as 1410 mg/kg.
In the case of O=C(c1cccnc1)N1CCN=C1Nc1c(Cl)cccc1Cl, the LD50 is listed as 80 mg/kg.
